One assay addresses AURKA (Homo sapiens (Human), UniProt O14965). As to the kind of experiment: Binding to AURKA.
A further assay deals with NMP53^−/− cells. As to the kind of experiment: Immunofluorescence staining (α-tubulin, DAPI) of normal and abnormal spindles. Type of assay: cell-based, murine. The following applies: different treatment times. As for the experimental part: The AURKA compounds of this invention trigger the formation of abnormal (multipolar and monopolar) spindles a few minutes after application. A. Representative images of immunofluorescence stainings with antibodies against α-tubulin (light grey) and DAPI (surrounded by a dashed white line) of a tumor cell line (NMP53^−/− cells) treated for 24 hours with compound 3a [N-(2-fluoro-5-((4-(1-methyl-1H-pyrazole-4-yl)benzyl)amino)phenyl)-3-(furan-2-yl)-propanamide] or DMSO as a control. B. Quantification of normal and abnormal spindles of immunofluorescence staining with antibodies against α-tubulin and DAPI of a tumor cell line (NMP53^−/− cells) after different treatment times with compound 3a according to this invention or DMSO as a control.
The AURKA compounds of this invention trigger the formation of abnormal (e.g. multipolar and/or monopolar) spindles in tumor cell lines (NMP53^−/− cells) (FIG. 8).

Sequence of AURKA (O14965 whole entry): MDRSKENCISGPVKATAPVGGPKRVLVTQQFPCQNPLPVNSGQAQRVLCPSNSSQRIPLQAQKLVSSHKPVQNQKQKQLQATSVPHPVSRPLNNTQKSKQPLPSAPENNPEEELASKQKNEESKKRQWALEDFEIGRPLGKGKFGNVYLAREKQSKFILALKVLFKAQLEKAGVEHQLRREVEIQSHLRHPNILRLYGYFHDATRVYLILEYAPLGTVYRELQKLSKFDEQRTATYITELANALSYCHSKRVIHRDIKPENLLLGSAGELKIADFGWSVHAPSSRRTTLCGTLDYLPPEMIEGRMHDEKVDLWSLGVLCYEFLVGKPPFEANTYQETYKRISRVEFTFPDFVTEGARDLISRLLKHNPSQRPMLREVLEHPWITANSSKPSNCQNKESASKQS

Consider `O=C(CCc1ccco1)Nc1cc(NCc2ccc(-c3cn[nH]c3)cc2)ccc1F` [Compound 2c, N-(5-((4-(1H-pyrazole-4-yl)benzyl)amino)-2-fluorophenyl)-3-(furan-2-yl)propanamide], for which, at AURKA, the “binding to AURKA” value is on record as “strong binding”. Take `Cn1cc(-c2ccc(CNc3ccc(F)c(NC(=O)CCc4ccco4)c3)cc2)cn1` [Compound 3a, N-(2-fluoro-5-((4-(1-methyl-1H-pyrazole-4-yl)benzyl)amino)phenyl)-3-(furan-2-yl)propanamide]: in the assay on NMP53^−/− cells, the “formation of abnormal spindles” value was “induce the formation of abnormal spindles within a few minutes”.

The record behind these values is US20240101538A1, “PROTEIN-PROTEIN INTERACTION MODULATORS OF AURORA KINASE A AND THEIR USE IN THE PREVENTION AND/OR TREATMENT OF CANCER” (EBERHARD KARLS UNIVERSITÄT TÜBINGEN, priority 2020, published 2024).
